Reference: US9174965B2, “Pyrimidinylpiperidinyloxypyridone analogues as GPR119 modulators” (BRISTOL-MYERS SQUIBB COMPANY, priority 2012, dated 2015)
In brackets after ≈: the same amount, converted by molar mass.

What was measured:
[1] = molecular target: hERG (Homo sapiens (Human), UniProt Q12809); assay: Patch clamp electrophysiology assay, hERG; type: cell-based; conditions: HEK293 cells stably expressing hERG, pH 7.4
Protocol: Compound Electrophysiology Assays
Recombinant ion channels (hERG, sodium [SCN5A], and L-type calcium [Cav1.2]) stably expressed in human embryonic kidney cells (HEK293) are used as test systems, and each system is tested using 2-3 replicates in the conventional patch clamp assay.
Ion channel membrane current recordings are made with a Multiclamp 700 series integrating patch-clamp amplifier (Axon Instruments, Foster City, Calif.) using the whole-cell variant of the patch-clamp technique.
Cells expressing hERG, sodium [SCN5A], or L-type calcium [Cav1.2] channels are placed in a plexiglass bath chamber, mounted on the stage of an inverted microscope, and perfused continuously with bath solution. […]
Initially, a current-voltage relationship is generated in the control bath solution using the following voltage protocol. hERG currents are elicited by 2 second step depolarizations applied from a holding potential of −80 mV to test potentials ranging from −70 mV to +60 mV. […] The peak tail current is monitored until a new steady-state in the presence of test article was achieved. This is followed by the application of the next higher concentration of test article to be tested, and is repeated until all concentrations of test article have been evaluated. Effects of test article on hERG channel are calculated by measuring inhibition of peak tail currents. […]

[2] = system: male C57BL/6J mice; assay: Mouse oral glucose tolerance test; type: in vivo; conditions: for Glucose Lowering: at the minimally efficacious dose, plasma glucose AUC in oGTT; for Minimally efficacious Dose: oGTT in C57BL/6J mice
Protocol: Mouse Oral Glucose Tolerance Test
Twenty four (24) male C57BL/6J mice (8-10 weeks old, average weight 28 g) were randomized into 4 groups (1 mouse/cage) of 6 mice per group based on fed plasma glucose and body weight. Prior to initiating the study, mice were fasted overnight and the next morning they were weighed and placed in the experimental lab. After 30 min in the environment, the mice were bled via tail tip at −60 min and immediately given their first oral administration of vehicle (40% PEG400, 10% Cremophor EL, 50% water) or compound solutions (5 ml/kg). At time 0 the mice were bled and given 50% glucose (2 g/kg) to initiate the oral glucose tolerance test (oGTT). The mice were bled 30, 60 and 120 min after the glucose load. Blood samples were drawn into potassium EDTA, placed on ice during the study and subsequently centrifuged for 10 min at 3000 rpm at 4° C. Plasma samples were diluted 11-fold for glucose analysis in the COBAS MIRA® System (Roche Diagnostics). Area under the curve was calculated from the plasma glucose time course data using the trapezoid rule with fasting plasma glucose as the baseline (GraphPad Prism Software). The statistical significance of the changes in the glucose AUCs resulting from the different treatments was determined by one-way ANOVA followed by Dunnett's test using the vehicle group as the control (JMP software, release 5.1.2).
Find below in Table 7 data for compared compounds (See WO 2009/012275 A1).

[3] = Aqueous solubility assay; type: physicochemical; conditions: aqueous buffer, thermodynamic from solid; pH 6.5 phosphate buffer, room temperature, 18-24 h
Protocol: Approximately 0.75 mg of accurately weighed test compound was added to 1 mL of a pH 6.5 phosphate buffer (50 mM Potassium Phosphate Buffer) to make solutions with a nominal targeted concentration of 1 mM. The vial was then rotated on an orbital shaker at room temperature for 18-24 h. After equilibration time had been met, the test solution was centrifuge filtered through a 0.45 um membrane (Millipore Ultrafree Centrifugal Filters, Durapore PVDF 0.45 um). The filtrate was then analyzed by an Agilent HP1100 HPLC/UV at multiple wavelengths using diode array detection (e.g. 210, 230, 254 and 280 nm) against a previously generated calibration curve to determine compound concentration.
(§1) Find below in Table 9 data for compared compounds (See WO 2011/127106 A1).

[4] = FaSSIF solubility assay; type: physicochemical; conditions: thermodynamic from solid, FaSSIF buffer, 37° C.
Protocol: Approximately 5-10 mg of accurately weighed test compound was transferred to a glass vial containing 4 mL of a FaSSIF buffer (PharesAG, prepared according to manufactures protocol). The vial was then rotated at 37° C. for 24 h. After equilibration time had been met, the test solution was centrifuge filtered through a 0.45 um PTFE membrane filter. The filtrate was then analyzed by HPLC/UV against a set of standard injections to determine compound concentration.
as §1

hERG, sequence (Q12809 whole entry): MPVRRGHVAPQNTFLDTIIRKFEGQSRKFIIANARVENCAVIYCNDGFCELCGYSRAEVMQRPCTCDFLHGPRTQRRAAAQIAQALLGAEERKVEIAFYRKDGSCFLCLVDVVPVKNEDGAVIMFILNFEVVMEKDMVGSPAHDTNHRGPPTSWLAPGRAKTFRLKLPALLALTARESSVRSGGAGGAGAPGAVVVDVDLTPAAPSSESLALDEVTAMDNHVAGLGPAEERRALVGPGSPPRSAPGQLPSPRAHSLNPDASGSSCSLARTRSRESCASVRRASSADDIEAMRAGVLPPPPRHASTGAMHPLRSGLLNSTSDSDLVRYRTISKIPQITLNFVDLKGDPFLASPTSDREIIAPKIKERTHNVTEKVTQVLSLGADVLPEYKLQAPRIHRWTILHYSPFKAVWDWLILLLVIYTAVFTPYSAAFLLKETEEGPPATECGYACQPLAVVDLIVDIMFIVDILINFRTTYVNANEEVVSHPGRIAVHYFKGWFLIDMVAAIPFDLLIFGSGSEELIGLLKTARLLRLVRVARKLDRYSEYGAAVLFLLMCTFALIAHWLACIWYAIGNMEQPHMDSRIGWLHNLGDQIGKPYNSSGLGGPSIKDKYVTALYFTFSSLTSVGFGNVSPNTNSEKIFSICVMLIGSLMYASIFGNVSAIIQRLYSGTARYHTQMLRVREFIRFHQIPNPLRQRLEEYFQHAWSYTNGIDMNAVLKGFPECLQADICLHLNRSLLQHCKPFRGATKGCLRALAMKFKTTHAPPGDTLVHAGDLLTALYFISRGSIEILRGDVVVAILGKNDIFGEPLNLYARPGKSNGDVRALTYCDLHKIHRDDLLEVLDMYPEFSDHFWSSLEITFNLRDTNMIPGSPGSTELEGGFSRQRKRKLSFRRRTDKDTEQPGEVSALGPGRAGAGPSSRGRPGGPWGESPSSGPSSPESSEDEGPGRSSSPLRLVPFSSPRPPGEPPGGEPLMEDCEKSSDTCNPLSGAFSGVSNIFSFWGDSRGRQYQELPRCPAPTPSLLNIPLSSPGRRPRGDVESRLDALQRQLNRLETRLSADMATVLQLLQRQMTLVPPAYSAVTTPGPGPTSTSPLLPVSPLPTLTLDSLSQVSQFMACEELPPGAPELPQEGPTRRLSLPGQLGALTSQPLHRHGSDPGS

Row | solubility [3] [µg/mL] | solubility at 24 h [4] [µg/mL] | SMILES | inhibition at 30 µM [1] [%] | Glucose Lowering [2] [%] | Minimally efficacious Dose [2] [mg/kg]
1 | 1 (≈ 1.88 µM) |  | Cc1nc(-n2cc(Cl)c(OC3CCN(c4ncc(Cl)cn4)CC3)cc2=O)ccc1N1CC[C@H](O)C1=O [Example 3, (S)-5-chloro-4-((1-(5-chloropyrimidin-2-yl)piperidin-4-yl)oxy)-5′-(3-hydroxy-2-oxopyrrolidin-1-yl)-6′-methyl-2H-[1,2′-bipyridin]-2-one] | 33 | −26 | 0.03
2 | 2 (≈ 3.76 µM) | 11 (≈ 20.7 µM) | Cc1nc(-n2cc(Cl)c(OC3CCN(c4ncc(Cl)cn4)CC3)cc2=O)ccc1N1CC[C@@H](O)C1=O [Example 4, (R)-5-chloro-4-((1-(5-chloropyrimidin-2-yl)piperidin-4-yl)oxy)-5′-(3-hydroxy-2-oxopyrrolidin-1-yl)-6′-methyl-2H-[1,2′-bipyridin]-2-one] | 40 | −39 | 0.03
